The text below walks through data of US20250026762A1, “FUSED PYRAZOLE UREA ANALOGS AS GLUCOSYLCERAMIDE SYNTHASE INHIBITORS” (Merck Sharp & Dohme LLC, priority 2021, published 2025).

The target of the assay is glucosylceramide synthase (GCS) enzyme in Golgi preparations from human A375 malignant melanoma skin cells (Homo sapiens (Human), UniProt Q16739). The assay is described as follows: UDP-Glo glucosylceramide synthase biochemical assay. To be noted: 1.5 μg crude golgi preparation; C6 ceramide and UDP-glucose at 2×Km; 20 h incubation at room temperature; luminescence. The source says: UDP-Glo™ Glucosylceramide Synthase Biochemical Assay
glucosylceramide synthase (GCS) enzyme in Golgi preparations from human A375 malignant melanoma skin cells, sequence (Q16739 whole entry): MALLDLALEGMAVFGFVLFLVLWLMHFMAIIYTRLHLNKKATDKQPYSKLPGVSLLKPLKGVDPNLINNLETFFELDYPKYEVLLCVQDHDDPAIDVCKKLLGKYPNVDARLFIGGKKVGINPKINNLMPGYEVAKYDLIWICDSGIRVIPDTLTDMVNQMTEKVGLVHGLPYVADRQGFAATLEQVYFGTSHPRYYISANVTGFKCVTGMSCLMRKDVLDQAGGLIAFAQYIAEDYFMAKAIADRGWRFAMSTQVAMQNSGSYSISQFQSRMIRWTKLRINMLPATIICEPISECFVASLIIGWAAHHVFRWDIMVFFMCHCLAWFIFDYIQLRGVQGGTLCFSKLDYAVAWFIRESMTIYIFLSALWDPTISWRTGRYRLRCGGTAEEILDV
A UDP-Glo™ glucosylceramide synthase biochemical assay was utilized to evaluate the effect of test compounds on the activity of endogenous levels of GCS enzyme contained within Golgi preparations isolated from human A375 malignant melanoma skin cells. The UDP-Glo™ glucosylceramide synthase assay uses UDP-Glucose as a nucleotide-glycosyl donor and ceramide as substrate acceptor molecules. In the reaction, glucosylceramide synthase (GCS) transfers glucose from UDP-Glucose to ceramide. Glucosylceramide and UDP are released as products.
Using Promega's UDP-Glo™ Glycosyltransferase assay kit (Promega Corporation, Madison, WI, USA (Promega)), GCS activity was indirectly measured by detecting the amount of UDP produced. An aliquot of GCS enzyme (1.5 μg crude golgi preparation, total protein) and titrated test compound were aliquoted to each well and incubated for 30 minutes at room temperature. Substrate mixture was prepared by mixing C6 ceramide (Avanti Polar Lipids, Alabaster, AL USA (Avanti)) (micelles prepared at 0.6 mM in 0.6 mM DOPC) and UDP-glucose (20 μM; Promega), at concentrations equivalent to 2×Km, in assay buffer (25 mM HEPES (pH 7.5), 50 mM KCl, 5 mM MgCl2). An equivalent volume of substrate mixture was then added to each well. Following a 20 h incubation at room temperature to allow for GCS turnover of substrate, an equal volume of UDP detection reagent (Promega) was added to each well and incubated for an additional 75 minutes at room temperature to simultaneously convert the accumulated UDP product into ATP and generate light in a luciferase reaction. The generated light was detected using a luminometer. […] luminescence values (RLUs) were normalized to mean “min” and “max” effects, as determined on each plate. “Min” was defined as the mean of the values of the wells treated with vehicle (DMSO) and which represent 0% inhibition; “max” was defined as the mean of the values of the wells treated with a reference inhibitor and which represent the 100% effect. Values for % Emax and EC50 were determined by best-fitting the normalized data to a curve in Activity Base along a four-parameter logistic nonlinear regression (4PL) model (based on the Levenberg-Marquardt algorithm and defined by the equation below): […]
where: n is 4PMin (bottom of the curve); m is 4PMax (top of the curve); i is IP (inflection point of curve); andp is slope. See Levenberg, K., “A Method for the Solution of Certain Problems in Least Squares”, Quart. Appl. Math. 2, (1944), pp 164-168 and Marquardt, D., “An Algorithm for Least Squares Estimation on Nonlinear Parameters”, SIAM J. Appl. Math. 11, (1963) pp 431-441.
Consider `COc1c(F)cccc1-c1nn(C(=O)N2CCN3CCC2CC3)c2c1CCC2` [Compound 38, 1,4-diazabicyclo[3.2.2]nonan-4-yl-[3-(3-fluoro-2-methoxy-phenyl)-5,6-dihydro-4H-cyclopenta[c]pyrazol-1-yl]methanone], for which a half-maximal response (EC50) required 0.6 nM.
Turning to `O=C(N1CCN2CCC1CC2)n1nc(-c2ccc(Cl)cn2)c2c1CCOC2` [Compound 48, (1,4-diazabicyclo[3.2.2]nonan-4-yl)(3-(5-chloropyridin-2-yl)-6,7-dihydropyrano[4,3-c]pyrazol-1(4H)-yl)methanone], the EC50 was 2 nM.
Compound `COc1cccc(-c2nn(C(=O)N3CCN4CCC3CC4)c3c2CCC3)c1F` [Compound 41, 1,4-diazabicyclo[3.2.2]nonan-4-yl-[3-(2-fluoro-3-methoxy-phenyl)-5,6-dihydro-4H-cyclopenta[c]pyrazol-1-yl]methanone] displayed a concentration giving a half-maximal response (EC50) of 0.5 nM. This EC50 lies about 4-fold lower than the previous one.
As for `CC1CCc2c(-c3ccc(F)cc3)nn(C(=O)N3CCN4CCC3CC4)c21` (single isomer, unassigned) [Compound 16, R or S-(1,4-diazabicyclo[3.2.2]nonan-4-yl)(3-(4-fluorophenyl)-6-methyl-5,6-dihydrocyclopenta[c]pyrazol-1(4H)-yl)methanone], the EC50 stood at 0.4 nM.
As for `CC1CCc2c(-c3ccc(F)cc3)nn(C(=O)N3CCN4CCC3CC4)c2O1` (stereo not drawn) [Compound 63, R and S-(1,4-diazabicyclo-[3.2.2]nonan-4-yl)(3-(4-fluorophenyl)-6-methyl-5,6-dihydropyrano[2,3-c]pyrazol-1(4H)-yl)methanone], the figure is 17.5 nM.
In turn, `CC1CCOc2c1c(-c1ccc(F)cc1)nn2C(=O)N1CCN2CCC1CC2` (stereo not drawn) [Compound 62, R and S-(1,4-diazabicyclo[3.2.2]nonan-4-yl)(3-(4-fluorophenyl)-4-methyl-5,6-dihydropyrano[2,3-c]pyrazol-1(4H)-yl)methanone] gave an EC50 of 7.7 nM.
On to `Cc1ccc(-c2nn(C(=O)N3CCN4CCC3CC4)c3c2CCC3)cc1` [Compound 31, 1,4-diazabicyclo[3.2.2]nonan-4-yl-[3-(p-tolyl)-5,6-dihydro-4H-cyclopenta[c]pyrazol-1-yl]methanone], for which a half-maximal effect (EC50) was put at 0.2 nM.
`O=C(N1CCN2CCC1CC2)n1nc(-n2cc(Cl)cn2)c2c1CCOC2` [Compound 60, (1,4-diazabicyclo[3.2.2]nonan-4-yl)(3-(4-chloro-1H-pyrazol-1-yl)-6,7-dihydropyrano[4,3-c]pyrazol-1(4H)-yl)methanone] had an EC50 of 4.8 nM.
Compound `CC1(C)Cc2c(c(-c3ccc(F)cc3)nn2C(=O)N2CCN3CCC2CC3)CO1` [Compound 18, (1,4-diazabicyclo[3.2.2]nonan-4-yl)(3-(4-fluorophenyl)-6,6-dimethyl-6,7-dihydropyrano[4,3-c]pyrazol-1(4H)-yl)methanone] came in with an EC50 of 9.8 nM.
As for `O=C(N1CCN2CCC1CC2)n1nc(-c2cc(Cl)ccc2F)c2c1COCC2` [Compound 29, (1,4-diazabicyclo[3.2.2]nonan-4-yl)(3-(5-chloro-2-fluorophenyl)-4,7-dihydropyrano[3,4-c]pyrazol-1(5H)-yl)methanone], the figure is 3.8 nM; as for `O=C(N1CCN2CCC1CC2)n1nc(-n2cc(C(F)(F)F)cn2)c2c1[C@H]1C[C@H]1C2` [Compound 61, (1,4-diazabicyclo[3.2.2]nonan-4-yl)((4aS,5aS)-3-(4-(trifluoromethyl)-1H-pyrazol-1-yl)-4,4a,5,5a-tetrahydro-1H-cyclopropa[4,5]cyclopenta[1,2-c]pyrazol-1-yl)methanone], 0.1 nM.
`O=C(N1CCN2CCC1CC2)n1nc(-n2cc(C(F)(F)F)cn2)c2c1CCOC2` [Compound 59, (1,4-diazabicyclo[3.2.2]nonan-4-yl)(3-(4-(trifluoromethyl)-1H-pyrazol-1-yl)-6,7-dihydropyrano[4,3-c]pyrazol-1(4H)-yl)methanone]: the EC50 was 3.1 nM. This EC50 is about 31-fold higher than that of the compound before.
The compound `COc1ncc(-c2nn(C(=O)N3CCN4CCC3CC4)c3c2CCC3)cc1Cl` [Compound 6, [3-(5-chloro-6-methoxy-3-pyridyl)-5,6-dihydro-4H-cyclopenta[c]pyrazol-1-yl]-(1,4-diazabicyclo[3.2.2]nonan-4-yl)methanone] came in with an EC50 of 0.4 nM.
In turn, `O=C(N1CCN2CCC1CC2)n1nc(-c2ccc(F)c(Cl)c2)c2c1COCC2` [Compound 7, [3-(3-chloro-4-fluoro-phenyl)-5,7-dihydro-4H-pyrano[3,4-c]pyrazol-1-yl]-(1,4-diazabicyclo[3.2.2]nonan-4-yl)methanone] displayed an EC50 of 1 nM.
The compound `O=C(N1CCN2CCC1CC2)n1nc(-n2cc(Cl)cn2)c2c1COCC2` [Compound 55, (1,4-diazabicyclo[3.2.2]nonan-4-yl)(3-(4-chloro-1H-pyrazol-1-yl)-4,7-dihydropyrano[3,4-c]pyrazol-1(5H)-yl)methanone] came in with an EC50 of 10.4 nM.
With `O=C(N1CCN2CCC1CC2)n1nc(-c2cccc(Cl)c2F)c2c1COCC2` [Compound 27], the EC50 turned out to be 1.6 nM.
To `O=C(N1CCN2CCC1CC2)n1nc(-c2ccc(F)cc2)c2c1[C@H]1C[C@H]1C2` [Compound 11, (1,4-diazabicyclo[3.2.2]nonan-4-yl)((4aS,5aS)-3-(4-fluorophenyl)-4,4a,5,5a-tetrahydro-1H-cyclopropa[4,5]cyclopenta[1,2-c]pyrazol-1-yl)methanone] belongs 0.1 nM; to `O=C(N1CCN2CCC1CC2)n1nc(-n2cc(C(F)(F)F)cn2)c2c1CCC2` [Compound 54, (1,4-diazabicyclo[3.2.2]nonan-4-yl)(3-(4-(trifluoromethyl)-1H-pyrazol-1-yl)-5,6-dihydrocyclopenta[c]pyrazol-1(4H)-yl)methanone], 0.8 nM; to `O=C(N1CCN2CCC1CC2)n1nc(-c2ccc(F)c(Cl)c2)c2c1CCOC2` [Compound 36, (1,4-diazabicyclo[3.2.2]nonan-4-yl)(3-(3-chloro-4-fluorophenyl)-6,7-dihydropyrano[4,3-c]pyrazol-1(4H)-yl)methanone], 0.3 nM.
Take `O=C(N1CCN2CCC1CC2)n1nc(N2CCC(F)(F)CC2)c2c1CCC2` [Compound 51, (1,4-diazabicyclo[3.2.2]nonan-4-yl)(3-(4,4-difluoropiperidin-1-yl)-5,6-dihydrocyclopenta[c]pyrazol-1(4H)-yl)methanone]: a half-maximal response (EC50) required 7 nM.
Consider `Cn1ncc2ccc(-c3nn(C(=O)N4CCN5CCC4CC5)c4c3CCC4)cc21` [Compound 22, 1,4-diazabicyclo[3.2.2]nonan-4-yl-[3-(1-methylindazol-6-yl)-5,6-dihydro-4H-cyclopenta[c]pyrazol-1-yl]methanone], for which the concentration for a half-maximal effect (EC50) is 6.3 nM.
On to `O=C(N1CCN2CCC1CC2)n1nc(C2=CCC(F)(F)CC2)c2c1COCC2` [Compound 35, (1,4-diazabicyclo[3.2.2]nonan-4-yl)(3-(4,4-difluorocyclohex-1-en-1-yl)-4,7-dihydropyrano[3,4-c]pyrazol-1(5H)-yl)methanone], for which the EC50 worked out at 38.5 nM.
As for `O=C(N1CCN2CCC1CC2)n1nc(-c2ccc(OC(F)F)c(Cl)c2)c2c1COCC2` [Compound 2, 1,4-diazabicyclo[3.2.2]nonan-4-yl(3-(3-chloro-4-(difluoromethoxy)phenyl)-4,5-dihydropyrano[3,4-c]pyrazol-1(7H)-yl)methanone], the figure is 2.9 nM; as for `COc1ncc(-c2nn(C(=O)N3CCN4CCC3CC4)c3c2COCC3)cc1Cl` [Compound 47, (1,4-diazabicyclo[3.2.2]nonan-4-yl)(3-(5-chloro-6-methoxypyridin-3-yl)-6,7-dihydropyrano[4,3-c]pyrazol-1(4H)-yl)methanone], 8.3 nM.
With `O=C(N1CCN2CCC1CC2)n1nc(-c2ccc(F)cc2)c2c1CCC(F)(F)C2` [Compound 19, (1,4-diazabicyclo[3.2.2]nonan-4-yl)(5,5-difluoro-3-(4-fluorophenyl)-4,5,6,7-tetrahydro-1H-indazol-1-yl)methanone], a half-maximal effect (EC50) was put at 8.2 nM. The EC50 values of the last two compounds are within 1.5-fold of each other.
For the compound `O=C(N1CCN2CCC1CC2)n1nc(-c2ccc(F)cc2)c2c1CC(O)C2` (stereo not drawn) [Compound 21, R and S-(1,4-diazabicyclo[3.2.2]nonan-4-yl)(3-(4-fluorophenyl)-5-hydroxy-5,6-dihydrocyclopenta[c]pyrazol-1(4H)-yl)methanone], the EC50 turned out to be 19.3 nM.
Regarding `O=C(N1CCN2CCC1CC2)n1nc(-c2ccc3c(c2)CCO3)c2c1CCC2` [Compound 43, 1,4-diazabicyclo[3.2.2]nonan-4-yl-[3-(2,3-dihydrobenzofuran-5-yl)-5,6-dihydro-4H-cyclopenta[c]pyrazol-1-yl]methanone], a half-maximal response (EC50) required 0.5 nM.

In general, EC50 refers to the concentration at which the effect is half-maximal.
